# Reference: US20180263996A1, “ARYL SULTAM DERIVATIVES AS RORc MODULATORS” (Genentech, Inc., priority 2015, published 2018)
# Target: T1, RORc (Homo sapiens, UniProt P51449)
# T1 construct: host or cells: E. coli
# T1 sequence (P51449 269-508 limits assumed): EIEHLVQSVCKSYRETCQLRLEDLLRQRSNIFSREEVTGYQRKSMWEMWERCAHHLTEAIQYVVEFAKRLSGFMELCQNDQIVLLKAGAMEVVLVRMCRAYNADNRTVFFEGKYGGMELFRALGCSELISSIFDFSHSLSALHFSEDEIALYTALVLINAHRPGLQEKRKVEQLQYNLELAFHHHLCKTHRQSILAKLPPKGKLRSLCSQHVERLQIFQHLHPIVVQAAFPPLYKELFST
# Test: In Vitro RORc Ligand Binding Assay
# Details: IC50 values for RORc
# Experimental: This assay was used to determine a compound's potency in inhibiting activity of RORc by determining, Kiapp, IC50, or percent inhibition values.
# On day of the assay, 100 uL of 0.05% CHAPS (in deionized H2O) was added to all wells of the GFB Unifilter plate and allowed soak for 1 h. A wash buffer of 50 mM HEPES (pH 7.4), 150 mM NaCl, and 5 mM MgCl2 was prepared to wash the filter plate. To prepare an assay buffer, BSA was added to the wash buffer to reach 0.01% and DTT was added to reach 1 mM.
# The 20× compound stocks were diluted in DMSO with Assay Buffer 4-fold to reach 5× the final test concentration in 25% DMSO (10 uL compound+30 uL Assay Buffer). Solutions were mixed by aspiration several times with a pipette set on 50 uL volume.
# For two point screening, 10 mM stock compound solutions were diluted in DMSO to obtain 200 uM (20× the high test concentration) and then diluted 10-fold further to reach 20 uM (20× the low test concentration). The 20× stocks were diluted 4-fold with Assay Buffer (10 uL compound+30 uL Assay Buffer) to reach 5× the test concentrations (50 uM and 5 uM) and 10 uL were added to two assay plates for the duplicate wells. With each concentration tested on 2 plates, each set of 80 compounds used 4 assay plates (1 uM and 10 uM, with n=2).
# For 25-hydroxycholesterol in 25% DMSO/75% Assay Buffer; 10 uL per well was used for NSB samples. Wells for Total Binding and No Receptor sample determination contained 10 uL of 25% DMSO/75% Assay Buffer per well.
# Add 20 uL to all wells to reach 6 nM final concentration in the assay.
# Stock receptor solution was diluted in assay buffer to obtain 1.5 ug/mL in Assay Buffer. 20 uL was added to all wells. For No Receptor samples, 20 uL Assay Buffer was substituted for receptor solution.
# Assay plates were 96-well polypropylene V-bottom plates. […] 10 uL of 25% DMSO/75% Assay Buffer was added to Total Binding or No Receptor wells. 10 uL of 5 uM 25-hydroxycholesterol in 25% DMSO/75% Assay Buffer was added to NSB wells. […] 20 uL of 1.5 ug/mL RORc receptor was added to wells (or 40 uL Assay Buffer to No R wells). Following addition to the wells, the plates were incubated 3 h at 25° C.
# Using a Packard Filtermate Harvester, the filter plate were washed 4 times following transfer of the incubated samples. Plates were dry-filtered completely (2 h at 50° C. or overnight at room temperature). 50 uL Microscint 0 was added to all wells and read on Topcount protocol Inverted.
# Final concentrations were as follows: 50 mM HEPES buffer (pH 7.4); 150 mM NaCl; 1 mM DTT; 5 mM MgCl2; 0.01% BSA; 5% DMSO; 0.6 ug/mL RORc receptor; 6 nM 25-[^3H]hydroxycholesterol. For NSB wells, 1 uM 25-hydroxycholesterol was also present.
row,IC50 [nM],SMILES
1,53.5,"CO[C@H]1C[C@@H](NC(=O)C2(c3ccc(CN4[C@@H](C)CC[C@H](c5ccccc5)S4(=O)=O)c(F)c3)CCOCC2)C1 [Compound 32, 4-[3-fluoro-4-[[(3S,6R)-3-methyl-1,1-dioxo-6-phenyl-thiazinan-2-yl]methyl]phenyl]-N-(3-methoxycyclobutyl)tetrahydropyran-4-carboxamide]"
2,31,"C[C@H]1CC[C@H](c2ccccc2)S(=O)(=O)N1Cc1cc(F)c([C@@H](CC2COC2)C(N)=O)cc1F [Compound 5, (2R)-2-[2,5-difluoro-4-[[(3S,6R)-3-methyl-1,1-dioxo-6-phenyl-thiazinan-2-yl]methyl]phenyl]-3-(oxetan-3-yl)propanamide]"
3,14,"CC(NC(=O)c1cnn(C)c1)c1cc(F)c(CN2[C@@H](C)CC[C@H](c3ccccc3)S2(=O)=O)cc1F (stereo in doubt) [Compound 61, N-[1-[2,5-difluoro-4-[[(3S,6R)-3-methyl-1,1-dioxo-6-phenyl-thiazinan-2-yl]methyl]phenyl]ethyl]-1-methyl-pyrazole-4-carboxamide]"
4,8.3,"CC(NC(=O)c1cncnc1)c1cc(F)c(CN2[C@@H](C)CC[C@H](c3ccccc3)S2(=O)=O)cc1F (stereo in doubt) [Compound 63, N-[1-[2,5-difluoro-4-[[(3S,6R)-3-methyl-1,1-dioxo-6-phenyl-thiazinan-2-yl]methyl]phenyl]ethyl]pyrimidine-5-carboxamide]"
5,74.5,"CC(NC(=O)c1ccnn1C)c1cc(F)c(CN2[C@@H](C)CC[C@H](c3ccccc3)S2(=O)=O)cc1F (stereo in doubt) [Compound 69, N-[1-[2,5-difluoro-4-[[(3S,6R)-3-methyl-1,1-dioxo-6-phenyl-thiazinan-2-yl]methyl]phenyl]ethyl]-2-methyl-pyrazole-3-carboxamide]"
6,64.2,"C[C@H]1CC[C@H](c2ccccc2)S(=O)(=O)N1Cc1cc(F)c([C@H](OC2CCOCC2)C(N)=O)cc1F [Compound 7, (2S)-2-[2,5-difluoro-4-[[(3S,6R)-3-methyl-1,1-dioxo-6-phenyl-thiazinan-2-yl]methyl]phenyl]-2-tetrahydropyran-4-yloxy-acetamide]"
7,44.5,"C[C@H]1CC[C@H](c2ccccc2)S(=O)(=O)N1Cc1ccc(C2(COCC3COC3)CCOCC2)cc1F [Compound 3, (3S,6R)-2-[[2-fluoro-4-[4-(oxetan-3-ylmethoxymethyl)tetrahydropyran-4-yl]phenyl]methyl]-3-methyl-6-phenyl-thiazinane 1,1-dioxide]"
8,167,"CC(NC(=O)c1cocn1)c1cc(F)c(CN2[C@@H](C)CC[C@H](c3ccccc3)S2(=O)=O)cc1F (stereo in doubt) [Compound 65, N-[1-[2,5-difluoro-4-[[(3S,6R)-3-methyl-1,1-dioxo-6-phenyl-thiazinan-2-yl]methyl]phenyl]ethyl]oxazole-4-carboxamide]"
9,50.7,"C[C@H]1CC[C@H](c2ccccc2)S(=O)(=O)N1Cc1cc(F)c([C@H](OCC2CC2)C(N)=O)cc1F [Compound 19, (2S)-2-(cyclopropylmethoxy)-2-[2,5-difluoro-4-[[(3S,6R)-3-methyl-1,1-dioxo-6-phenyl-thiazinan-2-yl]methyl]phenyl]acetamide]"
10,1.5,"C[C@H]1CC[C@H](c2ccccc2)S(=O)(=O)N1Cc1cc(F)c(C2(NCC(N)=O)CC(F)(F)C2)cc1F [Compound 21, 2-[[1-[2,5-difluoro-4-[[(3S,6R)-3-methyl-1,1-dioxo-6-phenyl-thiazinan-2-yl]methyl]phenyl]-3,3-difluoro-cyclobutyl]amino]acetamide]"
11,83.5,"C[C@H]1CC[C@H](c2ccccc2)S(=O)(=O)N1Cc1ccc(C2(C(=O)NCC3CC3)CCOCC2)cc1F [Compound 31, N-(cyclopropylmethyl)-4-[3-fluoro-4-[[(3S,6R)-3-methyl-1,1-dioxo-6-phenyl-thiazinan-2-yl]methyl]phenyl]tetrahydropyran-4-carboxamide]"
12,18.5,"C[C@H]1CC[C@H](c2ccccc2)S(=O)(=O)N1Cc1cc(F)c(C2(C(N)=O)CC(CC#N)C2)cc1F (stereo partly drawn) [Compound 44, 3-(cyanomethyl)-1-[2,5-difluoro-4-[[(3S,6R)-3-methyl-1,1-dioxo-6-phenyl-thiazinan-2-yl]methyl]phenyl]cyclobutane-carboxamide]"
13,3,"CC(NC(=O)c1csnn1)c1cc(F)c(CN2[C@@H](C)CC[C@H](c3ccccc3)S2(=O)=O)cc1F (stereo in doubt) [Compound 79, N-[1-[2,5-difluoro-4-[[(3S,6R)-3-methyl-1,1-dioxo-6-phenyl-thiazinan-2-yl]methyl]phenyl]ethyl]thiadiazole-4-carboxamide]"
14,7,"Cc1cc(C(=O)NC(C)c2cc(F)c(CN3[C@@H](C)CC[C@H](c4ccccc4)S3(=O)=O)cc2F)no1 (stereo in doubt) [Compound 51, N-[1-[2,5-difluoro-4-[[(3S,6R)-3-methyl-1,1-dioxo-6-phenyl-thiazinan-2-yl]methyl]phenyl]ethyl]-5-methyl-isoxazole-3-carboxamide]"
15,254,"CC(NC(=O)c1ccn(C)n1)c1cc(F)c(CN2[C@@H](C)CC[C@H](c3ccccc3)S2(=O)=O)cc1F (stereo in doubt) [Compound 58, N-[1-[2,5-difluoro-4-[[(3S,6R)-3-methyl-1,1-dioxo-6-phenyl-thiazinan-2-yl]methyl]phenyl]ethyl]-1-methyl-pyrazole-3-carboxamide]"
16,215,"CC(NC(=O)c1csc(N)n1)c1cc(F)c(CN2[C@@H](C)CC[C@H](c3ccccc3)S2(=O)=O)cc1F (stereo in doubt) [Compound 78, 2-amino-N-[1-[2,5-difluoro-4-[[(3S,6R)-3-methyl-1,1-dioxo-6-phenyl-thiazinan-2-yl]methyl]phenyl]ethyl]thiazole-4-carboxamide]"
17,2.3,"C[C@H]1CC[C@H](c2ccccc2)S(=O)(=O)N1Cc1cc(F)c(C2(OCC(N)=O)CC3(COC3)C2)cc1F [Compound 12, 2-[[6-[2,5-difluoro-4-[[(3S,6R)-3-methyl-1,1-dioxo-6-phenyl-thiazinan-2-yl]methyl]phenyl]-2-oxaspiro[3.3]heptan-6-yl]oxy]acetamide]"
18,83.3,"CC(NC(=O)c1cc[nH]n1)c1cc(F)c(CN2[C@@H](C)CC[C@H](c3ccccc3)S2(=O)=O)cc1F (stereo in doubt) [Compound 68, N-[1-[2,5-difluoro-4-[[(3S,6R)-3-methyl-1,1-dioxo-6-phenyl-thiazinan-2-yl]methyl]phenyl]ethyl]-1H-pyrazole-3-carboxamide]"
19,255,"CC(NCc1cocn1)c1cc(F)c(CN2[C@@H](C)CC[C@H](c3ccccc3)S2(=O)=O)cc1F (stereo partly drawn) [Compound 54, 1-[2,5-difluoro-4-[[(3S,6R)-3-methyl-1,1-dioxo-6-phenyl-thiazinan-2-yl]methyl]phenyl]-N-(oxazol-4-ylmethyl)ethanamine]"
20,101,"CC(NC(=O)Cc1cnoc1)c1cc(F)c(CN2[C@@H](C)CC[C@H](c3ccccc3)S2(=O)=O)cc1F (stereo partly drawn) [Compound 52, N-[1-[2,5-difluoro-4-[[(3S,6R)-3-methyl-1,1-dioxo-6-phenyl-thiazinan-2-yl]methyl]phenyl]ethyl]-2-isoxazol-4-yl-acetamide]"
